The text below walks through data of US10138251B2, “Spiro[3H-indole-3,2′-pyrrolidin]-2(1H)-one compounds and derivatives as MDM2-P53 inhibitors” (Boehringer Ingelheim International GmbH, priority 2014, dated 2018).

As usually defined, the IC50 is the concentration that inhibits the measured activity by half. A low value points to higher potency.

Assay [1] relates to solid tumor xenograft models. The following applies: Carol et al. 2013; cited from earlier work.
Assay [2] relates to acute lymphoblastic leukemia (ALL) xenograft models with mixed-lineage leukemia (MLL) rearrangement. The following applies: Carol et al. 2013; cited from earlier work.
The test system of assay [3] is human acute myeloid leukemia (AML) xenograft models harboring p53 wild-type. As to conditions: Tovar et al. 2013; cited from earlier work.
The test system of assay [4] is human prostate tumor xenograft models harboring p53 wild-type. As to conditions: Tovar et al. 2013; cited from earlier work.
A further assay has as its target T1, MDM2 (Homo sapiens, UniProt Q00987).
T1 construct: 20 nM GST-MDM2 protein (aa 23-117)
Description: Mdm2-p53 Inhibition AlphaScreen. The following applies: 20 nM GST-MDM2 protein (aa 23-117), 20 nM biotinylated p53 wt peptide. Format: binding. The protocol: Mdm2-p53 Inhibition AlphaScreen
15 μL of compound in 20% DMSO (serial pre-dilutions of compound are done in 100% DMSO) is pipetted to the wells of a white OptiPlate-96 (PerkinElmer). A mix consisting of 20 nM GST-MDM2 protein (aa 23-117) and 20 nM biotinylated p53 wt peptide (encompassing aa 16-27 of wt human p53, amino acid sequence QETFSDLWKLLP-Ttds-Lys-Biotin, molecular weight 2132.56 g/mol) is prepared in assay buffer (50 mM Tris/HCl pH 7.2; 120 mM NaCl; 0.1% bovine serum albumin (BSA); 5 mM dithiothreitol (DTT); 1 mM ethylenediaminetetraacetic acid (EDTA); 0.01% Tween 20). 30 μL of the mix is added to the compound dilutions and incubated for 15 min at rt while gently shaking the plate at 300 rounds per minute (rpm). Subsequently, 15 μL of premixed AlphaLISA Glutathione Acceptor Beads and AlphaScreen Streptavidin Donor Beads from PerkinElmer (in assay buffer at a concentration of 10 μg/mL each) are added and the samples are incubated for 30 min at rt in the dark (shaking 300 rpm). Afterwards, the signal is measured in a PerkinElmer Envision HTS Multilabel Reader using the AlphaScreen protocol from PerkinElmer.
Each plate contains negative controls where biotinylated p53-peptide and GST-MDM2 are left out and replaced by assay buffer. Negative control values are entered as low basis value when using the software GraphPad Prism for calculations. Furthermore, a positive control (5% DMSO instead of test compound; with protein/peptide mix) is pipetted. Determination of IC50 values are carried out using GraphPad Prism 3.03 software (or updates thereof).
(In general: Alpha assays give light when donor and acceptor beads are brought close together.)

T1 sequence (Q00987 23-117): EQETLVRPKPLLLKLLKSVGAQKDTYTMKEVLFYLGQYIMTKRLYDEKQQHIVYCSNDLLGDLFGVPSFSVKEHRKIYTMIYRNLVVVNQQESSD

Regarding `CCOc1cc(C(C)(C)C)ccc1C1=N[C@@](C)(c2ccc(Cl)cc2)[C@@](C)(c2ccc(Cl)cc2)N1C(=O)N1CCN(CCCS(C)(=O)=O)CC1` [RG7112], in assay [1], the tumor growth inhibition entry was “induced tumor growth inhibition”. For the same molecule, the efficacy entry in assay [2] is recorded as “particularly efficacious”. Further, the “antiproliferative and proapoptotic activity” value is “antiproliferative and proapoptotic activity” in assay [3]; “antiproliferative and proapoptotic activity” in assay [4].
In turn, `O=C(O)c1ccc([C@H]2C[C@H]3[C@@H](N2)[C@H](c2cccc(Cl)c2F)[C@]2(C(=O)Nc4cc(Cl)c(F)cc42)N3CC2CC2)cc1` [Compound I-35] registered a concentration for half-maximal inhibition (IC50) on MDM2 of 9 nM. This counts as single-digit nanomolar.
Same read-out and setting: with `O=C(O)CN1CC[C@H]2[C@@H]1[C@H](c1cccc(Cl)c1)[C@]1(C(=O)Nc3cc(Cl)ccc31)N2CC1CC1` [Compound I-60] the figure was 85 nM; with `O=C(O)C[C@H]1C[C@H]2[C@@H](N1)[C@H](c1cccc(Cl)c1)[C@]1(C(=O)Nc3cc(Cl)ccc31)N2CC1CC1` [Compound I-46], 280 nM.
